This passage reports MIC results from DBAASP.

≈ marks a conversion by molar mass, not a printed value. Bounds are passed on as bounds.

Holding throughout (test): ≥ marks a high value that may be exact or a test limit, other limits are often not marked, values filed in µg/mL are converted to µM
Test [1] concerns Candida albicans ATCC 10231.
Test [2] concerns Staphylococcus aureus ATCC 29231.
Test [3] concerns Acinetobacter baumannii ATCC 7978.
Test [4] has as its system Staphylococcus aureus MW2.
The test system of test [5] is Klebsiella aerogenes ATCC 13048.
Test [6] concerns Candida albicans MDM8.
The test system of test [7] is Pseudomonas aeruginosa ATCC 27853.
Test [8] relates to Micrococcus luteus A270.
Test [9] has as its system Salmonella enterica subsp. arizonae ATCC 13314.
Test [10] concerns Escherichia coli SBS 363.
The test system of test [11] is Klebsiella pneumoniae WGLW2.
For test [12], the system named is Escherichia coli.
The subject of test [13] is Salmonella enterica subsp. enterica serovar Enteritidis.
Test [14] concerns Listeria innocua.
The test system of test [15] is Bacillus cereus.
Test [16] relates to Bacillus anthracis.
Test [17] has as its system Staphylococcus aureus.
The test system of test [18] is Streptococcus mutans.
The subject of test [19] is Cryptococcus neoformans.
In test [20] the test system is Serratia marcescens.
Test [21] deals with Candida albicans.
Test [22] has as its system Pseudomonas putida.
In test [23] the test system is Bacillus subtilis.
In test [24] the test system is Saccharomyces cerevisiae.
For test [25], the system named is Streptococcus pneumoniae.
The subject of test [26] is Salmonella typhimurium.
Test [27] relates to Staphylococcus xylosus.
The test system of test [28] is Escherichia coli DH5alpha.

For the compound `CC[C@H](C)[C@H](NC(=O)[C@H](CCCCN)NC(=O)[C@H](Cc1c[nH]c2ccccc12)NC(=O)[C@@H](N)CC(C)C)C(=O)NCC(=O)N[C@@H](Cc1c[nH]c2ccccc12)C(=O)N[C@@H](CCCCN)C(=O)N[C@H](C(=O)N[C@@H](Cc1c[nH]c2ccccc12)C(=O)N[C@@H](CCCN=C(N)N)C(=O)N[C@H](C(=O)NCC(=O)N[C@@H](Cc1c[nH]c2ccccc12)C(=O)N[C@@H](CC(N)=O)C(=O)N[C@@H](Cc1c[nH]c2ccccc12)C(=O)N[C@@H](CCCN=C(N)N)C(=O)O)C(C)C)[C@@H](C)CC` [LWKIGWKIWRVGWNWR], the MIC – broadly, the lowest concentration that inhibits growth of the organism – in test [1] was 29.3 µM (≈ 64 µg/mL); in test [2], 14.7 µM (≈ 32 µg/mL); in test [3] it was 14.7 µM (≈ 32 µg/mL); in test [4], 14.7 µM (≈ 32 µg/mL); in test [5], not below 58.6 µM.
`CC[C@H](C)[C@H](NC(=O)[C@H](CC(C)C)NC(=O)[C@H](CO)NC(=O)[C@H](CC(C)C)NC(=O)[C@H](CC(C)C)NC(=O)[C@@H](N)CO)C(=O)N[C@@H](CCCN=C(N)N)C(=O)N[C@@H](CCCCN)C(=O)N[C@@H](CC(C)C)C(=O)N[C@@H](CC(C)C)C(=O)N[C@H](C(N)=O)[C@@H](C)O` [SLLSLIRKLLT]: the MIC in test [6] was 0.4 µM (≈ 0.502 µg/mL); in test [7], 1.6 µM (≈ 2.01 µg/mL); in test [8], 0.4 µM (≈ 0.502 µg/mL); in [9], not below 50 µM; in test [10], 1.6 µM (≈ 2.01 µg/mL).
As to `CC[C@H](C)[C@H](NC(=O)[C@H](Cc1c[nH]c2ccccc12)NC(=O)[C@H](CCCCN)NC(=O)[C@@H](N)CC(C)C)C(=O)NCC(=O)N[C@@H](CCCCN)C(=O)N[C@@H](Cc1c[nH]c2ccccc12)C(=O)N[C@H](C(=O)N[C@@H](Cc1c[nH]c2ccccc12)C(=O)N[C@@H](CCCN=C(N)N)C(=O)N[C@H](C(=O)NCC(=O)O)C(C)C)[C@@H](C)CC` [LKWIGKWIWRVG], the MIC is not below 83 µM in test [2], not below 83 µM in test [3], not below 41.5 µM in [4] and not below 83 µM in test [11].
As for `CC(C)C[C@H](NC(=O)[C@H](C)NC(=O)[C@H](CC(N)=O)NC(=O)[C@H](C)NC(=O)[C@@H](NC(=O)CNC(=O)[C@H](C)NC(=O)[C@@H](NC(=O)[C@@H](NC(=O)[C@H](CCCCN)NC(=O)[C@H](CCC(N)=O)NC(=O)[C@H](Cc1ccccc1)NC(=O)[C@H](CC(=O)O)NC(=O)[C@H](C)NC(=O)[C@H](CCC(N)=O)NC(=O)[C@H](CC(C)C)NC(=O)[C@@H](NC(=O)[C@@H]1CCCN1C(=O)[C@@H](NC(=O)[C@@H](N)Cc1ccccc1)[C@@H](C)O)C(C)C)C(C)C)C(C)C)C(C)C)C(=O)N[C@@H](C)C(=O)N[C@@H](Cc1cnc[nH]1)C(=O)N[C@@H](CCCN=C(N)N)C(=O)N[C@@H](Cc1ccc(O)cc1)C(=O)N[C@@H](Cc1cnc[nH]1)C(=O)O` [FTPVLQADFQKVVAGVANALAHRYH], the MIC was 73 µM (≈ 201 µg/mL) in test [12], not below 73 µM in test [13], not below 85 µM in test [8] and not below 73 µM in [14].
Regarding `CC(C)C[C@H](NC(=O)[C@H](CC(C)C)NC(=O)[C@H](CO)NC(=O)[C@H](CCCCN)NC(=O)[C@H](CC(C)C)NC(=O)[C@@H]1CCCN1C(=O)[C@H](C)NC(=O)[C@H](Cc1ccccc1)NC(=O)[C@@H]1CCCN1C(=O)[C@H](CC(C)C)NC(=O)[C@@H](NC(=O)[C@H](CCCCN)NC(=O)[C@H](CCCCN)NC(=O)[C@@H](NC(=O)[C@H](CO)NC(=O)[C@@H](N)C(C)C)C(C)C)C(C)C)C(=O)N[C@@H](CO)C(=O)N[C@@H](Cc1ccccc1)C(=O)N[C@@H](C)C(=O)N[C@@H](Cc1ccccc1)C(=O)O` [VSVKKVLPFAPLKSLLSFAF], the MIC in test [12] was 117 µM (≈ 256 µg/mL); in [15], not below 117 µM; in test [16], not below 117 µM; in [17], more than 117 µM.
Consider `CC(C)C[C@H](NC(=O)[C@H](CCCN=C(N)N)NC(=O)[C@H](Cc1cnc[nH]1)NC(=O)[C@@H](NC(=O)[C@H](CCCN=C(N)N)NC(=O)CNC(=O)[C@@H](NC(=O)[C@@H]1CCCN1C(=O)[C@H](Cc1ccccc1)NC(=O)[C@H](CCC(N)=O)NC(=O)[C@H](CC(C)C)NC(=O)CNC(=O)[C@H](C)NC(=O)[C@@H](N)CCCN=C(N)N)C(C)C)C(C)C)C(=O)O` [RAGLQFPVGRVHRL], for which the MIC is 159 µM (≈ 256 µg/mL) in test [12]; not below 159 µM in test [18]; not below 159 µM in [19]; not below 159 µM in test [20]; more than 159 µM in test [21]; not below 159 µM in test [22]. For the same compound, the MIC is 159 µM (≈ 256 µg/mL) in test [17]; not below 79.7 µM in test [23]; not below 159 µM in [24]; not below 79.7 µM in test [25]; not below 79.7 µM in [26].
For `CC(C)C[C@H](NC(=O)[C@@H](N)C(C)C)C(=O)N[C@@H](CO)C(=O)N[C@@H](C)C(=O)N[C@@H](C)C(=O)N[C@@H](CC(=O)O)C(=O)N[C@@H](CCCCN)C(=O)NCC(=O)N[C@@H](CC(N)=O)C(=O)N[C@H](C(=O)N[C@@H](CCCCN)C(=O)N[C@@H](C)C(=O)N[C@@H](C)C(=O)N[C@@H](Cc1c[nH]c2ccccc12)C(=O)NCC(=O)N[C@@H](CCCCN)C(=O)N[C@H](C(=O)NCC(=O)NCC(=O)N[C@@H](Cc1cnc[nH]1)C(=O)N[C@@H](C)C(=O)N[C@@H](C)C(=O)N[C@@H](CCC(=O)O)C(=O)N[C@@H](Cc1ccc(O)cc1)C(=O)NCC(=O)N[C@@H](C)C(=O)N[C@@H](CCC(=O)O)C(=O)N[C@@H](C)C(=O)O)C(C)C)C(C)C` [VLSAADKGNVKAAWGKVGGHAAEYGAEA], the MIC was 54 µM (≈ 147 µg/mL) in [12], 27 µM (≈ 73.7 µg/mL) in test [13], not below 54 µM in [8] and 27 µM (≈ 73.7 µg/mL) in [14].
Turning to `CC(C)C[C@H](NC(=O)[C@@H](NC(=O)[C@@H]1CCCN1C(=O)[C@H](CC(C)C)NC(=O)[C@@H](N)Cc1ccccc1)C(C)C)C(=O)N[C@H](C(=O)N[C@@H](CCCCN)C(=O)N[C@H](C(=O)N[C@@H](Cc1ccccc1)C(=O)N[C@@H](CCCN=C(N)N)C(=O)N[C@@H](Cc1ccc(O)cc1)C(=O)N[C@@H](CO)C(=O)N[C@@H](CCCCN)C(=O)N[C@@H](CCCCN)C(=O)N[C@H](C(=O)N[C@@H](C)C(=O)N[C@@H](C)C(=O)NCC(=O)N[C@@H](CS)C(=O)N[C@@H](Cc1ccccc1)C(=O)O)[C@@H](C)O)C(C)C)C(C)C` [FLPVLVKVFRYSKKTAAGCF], the MIC is more than 56.3 µM in test [12], 28.1 µM (≈ 64 µg/mL) in [15], not below 113 µM in test [16] and more than 113 µM in test [17].
As to `CC(C)C[C@H](NC(=O)[C@H](CC(C)C)NC(=O)[C@H](CCCN=C(N)N)NC(=O)[C@H](CCCN=C(N)N)NC(=O)[C@H](CC(C)C)NC(=O)[C@H](CC(C)C)NC(=O)[C@H](CCCN=C(N)N)NC(=O)[C@H](CCCN=C(N)N)NC(=O)[C@H](CC(C)C)NC(=O)[C@H](CC(C)C)NC(=O)[C@H](CCCN=C(N)N)NC(=O)[C@H](CCCN=C(N)N)NC(=O)[C@H](CC(C)C)NC(=O)[C@H](CC(C)C)NC(=O)[C@H](CCCN=C(N)N)NC(=O)[C@H](CCCN=C(N)N)NC(=O)[C@H](CC(C)C)NC(=O)[C@H](CC(C)C)NC(=O)[C@@H](N)CCCN=C(N)N)C(=O)N[C@@H](CCCN=C(N)N)C(=O)O` [RLLRRLLRRLLRRLLRRLLR], the MIC was found to be 0.738 µM (≈ 2 µg/mL) in [12]; 0.738 µM (≈ 2 µg/mL) in test [18]; 2.95 µM (≈ 8 µg/mL) in test [19]; 0.738 µM (≈ 2 µg/mL) in [20]; 2.95 µM (≈ 8 µg/mL) in test [21]; 0.738 µM (≈ 2 µg/mL) in test [22]. The MIC was determined as 0.369 µM (≈ 1 µg/mL) in test [17]; 0.738 µM (≈ 2 µg/mL) in [23]; 2.95 µM (≈ 8 µg/mL) in test [24]; 0.738 µM (≈ 2 µg/mL) in test [25]; 0.369 µM (≈ 1 µg/mL) in test [26].
Regarding `CC[C@H](C)[C@H](N)C(=O)N[C@@H](CC(C)C)C(=O)N[C@H](C(=O)N[C@@H](CCCCN)C(=O)N[C@@H](CCCN=C(N)N)C(=O)N[C@@H](CCCCN)C(=O)O)[C@@H](C)CC` [ILIKRK], the MIC in test [27] and in test [28] was not below 64 µM throughout.
